Laboratory results: ChEMBL document CHEMBL1201862, “PubChem BioAssay data set” (2004)
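Five compound concentrations were applied to cells in 96-well plates for 48 hours; endpoints were derived by simple linear interpolation of the resulting dose-response curve. GI50: concentration for 50% inhibition of growth.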 Active and inactive are the calls of the source. No stated cut-off is given here; in the data, active = GI50 up to about 1.1 µM and inactive = higher.

What was measured:
Test in all cases: growth of human tumour cells (NCI), 48 h
NCI-H522 = tested on: NCI-H522
HT-29 = tested on: HT-29
SK-MEL-28 = tested on: SK-MEL-28
UO-31 = tested on: UO-31
XF498 = tested on: XF498
SK-MEL-5 = tested on: SK-MEL-5
SK-MEL-2 = tested on: SK-MEL-2
HOP-18 = tested on: HOP-18
SNB-75 = tested on: SNB-75
COLO 205 = tested on: COLO 205
SF-539 = tested on: SF-539
MCF7 = tested on: MCF7
NCI/ADR-RES = tested on: NCI/ADR-RES
Malme-3M = tested on: Malme-3M
A549 = tested on: A549
HOP-92 = tested on: HOP-92
A498 = tested on: A498
HCC 2998 = tested on: HCC 2998
OVCAR-5 = tested on: OVCAR-5
KM-20L2 = tested on: KM-20L2
NCI-H23 = tested on: NCI-H23
NCI-H460 = tested on: NCI-H460
OVCAR-4 = tested on: OVCAR-4
NCI-H226 = tested on: NCI-H226
OVCAR-3 = tested on: OVCAR-3
SNB-19 = tested on: SNB-19
RXF 393 = tested on: RXF 393
MOLT-4 = tested on: MOLT-4
DMS-273 = tested on: DMS-273
HCT-15 = tested on: HCT-15
SN12C = tested on: SN12C
OVCAR-8 = tested on: OVCAR-8
HCT-116 = tested on: HCT-116
SNB-78 = tested on: SNB-78
DLD-1 = tested on: DLD-1
CCRF-CEM = tested on: CCRF-CEM
LOX IMVI = tested on: LOX IMVI
RPMI-8226 = tested on: RPMI-8226
U-251 = tested on: U-251
UACC-62 = tested on: UACC-62
SW-620 = tested on: SW-620
DMS-114 = tested on: DMS-114
UACC-257 = tested on: UACC-257
IGROV-1 = tested on: IGROV-1
HOP-62 = tested on: HOP-62
SF-295 = tested on: SF-295
K562 = tested on: K562
HL-60 = tested on: HL-60
EKVX = tested on: EKVX
KM12 = tested on: KM12
CAKI-1 = tested on: CAKI-1
SF-268 = tested on: SF-268
SK-OV-3 = tested on: SK-OV-3
M14 = tested on: M14
786-0 = tested on: 786-0
LXFL 529 = tested on: LXFL 529
ACHN = tested on: ACHN
TK-10 = tested on: TK-10
SR = tested on: SR
M19-MEL = tested on: M19-MEL

For CNC(=O)SCC(N)C(=O)O (configuration not stated), which GI50 (NCI-H522) is on record?
The GI50 was > 67.9 µM (inactive).

And the GI50 (HT-29)?
Its GI50 is > 71.3 µM (inactive).

And the GI50 (SK-MEL-28)?
Its GI50 is > 100 µM (inactive).

And the GI50 (UO-31)?
Its GI50 is > 100 µM (inactive).

What about the GI50 (XF498) of the same compound?
Its GI50 is 84.9 µM (inactive).

And the GI50 (SK-MEL-5)?
The GI50 was > 78.7 µM (inactive).

What about the GI50 (SK-MEL-2) of the same compound?
Its GI50 is > 82 µM (inactive).

And the GI50 (HOP-18)?
The GI50 was > 78.2 µM (inactive).

What about the GI50 (SNB-75) of the same compound?
Its GI50 is > 100 µM (inactive).

What about the GI50 (COLO 205) of the same compound?
The GI50 was 61.1 µM (inactive).

What about the GI50 (SF-539) of the same compound?
Its GI50 is > 100 µM (inactive).

And the GI50 (MCF7)?
Its GI50 is > 100 µM (inactive).

What about the GI50 (NCI/ADR-RES) of the same compound?
The GI50 was > 100 µM (inactive).

What about the GI50 (Malme-3M) of the same compound?
The GI50 was > 100 µM (inactive).

What about the GI50 (A549) of the same compound?
Its GI50 is > 100 µM (inactive).

And the GI50 (HOP-92)?
The GI50 was 51.9 µM (inactive).

What about the GI50 (A498) of the same compound?
The GI50 was > 100 µM (inactive).

And the GI50 (HCC 2998)?
Its GI50 is > 100 µM (inactive).

What about the GI50 (OVCAR-5) of the same compound?
Its GI50 is > 100 µM (inactive).

And the GI50 (KM-20L2)?
The GI50 was > 100 µM (inactive).

And the GI50 (NCI-H23)?
The GI50 was > 84.1 µM (inactive).

And the GI50 (NCI-H460)?
Its GI50 is > 68.7 µM (inactive).

What about the GI50 (OVCAR-4) of the same compound?
Its GI50 is > 100 µM (inactive).

And the GI50 (NCI-H226)?
Its GI50 is > 84.7 µM (inactive).

And the GI50 (OVCAR-3)?
Its GI50 is > 100 µM (inactive).

What about the GI50 (SNB-19) of the same compound?
Its GI50 is > 100 µM (inactive).

What about the GI50 (RXF 393) of the same compound?
Its GI50 is > 100 µM (inactive).

What about the GI50 (MOLT-4) of the same compound?
Its GI50 is 38.2 µM (inactive).

What about the GI50 (DMS-273) of the same compound?
The GI50 was 71.4 µM (inactive).

And the GI50 (HCT-15)?
Its GI50 is 46 µM.

And the GI50 (SN12C)?
Its GI50 is > 95.9 µM (inactive).

What about the GI50 (OVCAR-8) of the same compound?
Its GI50 is > 100 µM (inactive).

And the GI50 (HCT-116)?
The GI50 was > 79.4 µM (inactive).

And the GI50 (SNB-78)?
The GI50 was > 100 µM (inactive).

What about the GI50 (DLD-1) of the same compound?
The GI50 was > 100 µM (inactive).

What about the GI50 (CCRF-CEM) of the same compound?
The GI50 was 25.8 µM (inactive).

And the GI50 (LOX IMVI)?
The GI50 was 42.2 µM (inactive).

And the GI50 (RPMI-8226)?
The GI50 was 25.4 µM (inactive).

And the GI50 (U-251)?
The GI50 was > 89.9 µM (inactive).

And the GI50 (UACC-62)?
The GI50 was > 94.8 µM (inactive).

What about the GI50 (SW-620) of the same compound?
Its GI50 is > 85.9 µM (inactive).

What about the GI50 (DMS-114) of the same compound?
The GI50 was 35.3 µM (inactive).

And the GI50 (UACC-257)?
Its GI50 is > 100 µM (inactive).

And the GI50 (IGROV-1)?
Its GI50 is > 100 µM (inactive).

And the GI50 (HOP-62)?
The GI50 was > 100 µM (inactive).

And the GI50 (SF-295)?
Its GI50 is > 66.2 µM (inactive).

And the GI50 (K562)?
Its GI50 is 30.6 µM (inactive).

And the GI50 (HL-60)?
The GI50 was 25.2 µM (inactive).

And the GI50 (EKVX)?
Its GI50 is > 100 µM (inactive).

And the GI50 (KM12)?
The GI50 was > 100 µM (inactive).

And the GI50 (CAKI-1)?
Its GI50 is 65.8 µM (inactive).

And the GI50 (SF-268)?
Its GI50 is > 100 µM (inactive).

And the GI50 (SK-OV-3)?
The GI50 was > 100 µM (inactive).

COc1c(C)c2c(c(C)c1Cl)Oc1c(C=O)c(O)c(Cl)c(C)c1C(=O)O2 was tested. Which GI50 (NCI-H522) did it give?
Its GI50 is 22.7 µM (inactive).

What about the GI50 (HT-29) of the same compound?
Its GI50 is 36.9 µM (inactive).

And the GI50 (XF498)?
The GI50 was 2.66 µM (inactive).

And the GI50 (SK-MEL-5)?
The GI50 was 95.7 µM (inactive).

What about the GI50 (SNB-75) of the same compound?
Its GI50 is 23.4 µM (inactive).

What about the GI50 (M14) of the same compound?
Its GI50 is 20.9 µM (inactive).

What about the GI50 (COLO 205) of the same compound?
The GI50 was 22.8 µM (inactive).

What about the GI50 (SF-539) of the same compound?
The GI50 was 18.5 µM (inactive).

What about the GI50 (Malme-3M) of the same compound?
The GI50 was 23.2 µM (inactive).

And the GI50 (A549)?
Its GI50 is 33.7 µM (inactive).

What about the GI50 (A498) of the same compound?
Its GI50 is 24.2 µM (inactive).

And the GI50 (HCC 2998)?
The GI50 was 28.1 µM (inactive).

And the GI50 (OVCAR-5)?
The GI50 was 28.1 µM (inactive).

What about the GI50 (KM-20L2) of the same compound?
The GI50 was 30.5 µM (inactive).

And the GI50 (NCI-H23)?
The GI50 was 21.1 µM (inactive).

And the GI50 (NCI-H460)?
Its GI50 is 32.3 µM (inactive).

And the GI50 (786-0)?
Its GI50 is 31 µM (inactive).

What about the GI50 (LXFL 529) of the same compound?
The GI50 was 28.1 µM (inactive).

What about the GI50 (NCI-H226) of the same compound?
Its GI50 is 28.7 µM (inactive).

And the GI50 (ACHN)?
The GI50 was 22.4 µM (inactive).

What about the GI50 (OVCAR-3) of the same compound?
The GI50 was 11.7 µM (inactive).

And the GI50 (MOLT-4)?
Its GI50 is 20.6 µM (inactive).

What about the GI50 (TK-10) of the same compound?
The GI50 was 31.8 µM (inactive).

What about the GI50 (DMS-273) of the same compound?
Its GI50 is 22.4 µM (inactive).

And the GI50 (SN12C)?
Its GI50 is 33.3 µM (inactive).

What about the GI50 (OVCAR-8) of the same compound?
The GI50 was 36.7 µM (inactive).

What about the GI50 (HCT-116) of the same compound?
Its GI50 is 23 µM (inactive).

And the GI50 (SNB-78)?
Its GI50 is 18.2 µM (inactive).

And the GI50 (DLD-1)?
Its GI50 is 27.7 µM (inactive).

And the GI50 (CCRF-CEM)?
The GI50 was 20.3 µM (inactive).

And the GI50 (LOX IMVI)?
The GI50 was 25.9 µM (inactive).

And the GI50 (RPMI-8226)?
The GI50 was 32.6 µM (inactive).

And the GI50 (U-251)?
The GI50 was 20.3 µM (inactive).

What about the GI50 (UACC-62) of the same compound?
Its GI50 is 21.6 µM (inactive).

What about the GI50 (SW-620) of the same compound?
The GI50 was 43.8 µM (inactive).

What about the GI50 (DMS-114) of the same compound?
Its GI50 is 23.3 µM (inactive).

What about the GI50 (UACC-257) of the same compound?
The GI50 was 31.4 µM (inactive).

What about the GI50 (IGROV-1) of the same compound?
Its GI50 is 31.6 µM (inactive).

And the GI50 (HOP-62)?
The GI50 was 24.3 µM (inactive).

What about the GI50 (SF-295) of the same compound?
Its GI50 is 30.9 µM (inactive).

What about the GI50 (K562) of the same compound?
Its GI50 is 26.8 µM (inactive).

What about the GI50 (HL-60) of the same compound?
The GI50 was 22.3 µM (inactive).

What about the GI50 (EKVX) of the same compound?
Its GI50 is 17.9 µM (inactive).

And the GI50 (SR)?
Its GI50 is 27.5 µM (inactive).

And the GI50 (M19-MEL)?
Its GI50 is 31.3 µM (inactive).

What about the GI50 (KM12) of the same compound?
The GI50 was 31.8 µM (inactive).

What about the GI50 (CAKI-1) of the same compound?
The GI50 was 40.7 µM (inactive).

What about the GI50 (SF-268) of the same compound?
Its GI50 is 27.8 µM (inactive).

And the GI50 (SK-OV-3)?
Its GI50 is 33.2 µM (inactive).
